# Test results published in patent publication US20260132129A1 (Genesis Therapeutics, Inc., priority 2022, published 2026).
# Target: T1, PI3Kα H1047R (T47D cells) (Homo sapiens, UniProt P42336, H1047R)
# T1 construct: endogenous in cells; host or cells: T47D cells
# Assay: PI3Kα cellular assay: pAKT HTRF in T47D cells after EGF stimulation
# Format: cell-based
# Conditions: for IC50: T47D cells (PI3Kα H1047R), pAKT S473 HTRF
# Method in brief: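 pAKT read by HTRF in lysates of EGF-stimulated (20 ng/mL, 10 min) T47D H1047R cells. Before stimulation, serum-starved cells (16 h) received compound for 1 h at 37 °C, dosed from 10,000 nM down to 0.5 nM in 3-fold steps.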
# [1] = selectivity of T47D (H1047R) over SKBR3 (WT) pAKT IC50
# [2] = 1 hr compound, 20 ng/ml EGF 10 min
# [3] = selectivity T47D (H1047R) over SKBR3 (WT), pAKT HTRF
# T1 sequence (P42336 whole entry H1047R): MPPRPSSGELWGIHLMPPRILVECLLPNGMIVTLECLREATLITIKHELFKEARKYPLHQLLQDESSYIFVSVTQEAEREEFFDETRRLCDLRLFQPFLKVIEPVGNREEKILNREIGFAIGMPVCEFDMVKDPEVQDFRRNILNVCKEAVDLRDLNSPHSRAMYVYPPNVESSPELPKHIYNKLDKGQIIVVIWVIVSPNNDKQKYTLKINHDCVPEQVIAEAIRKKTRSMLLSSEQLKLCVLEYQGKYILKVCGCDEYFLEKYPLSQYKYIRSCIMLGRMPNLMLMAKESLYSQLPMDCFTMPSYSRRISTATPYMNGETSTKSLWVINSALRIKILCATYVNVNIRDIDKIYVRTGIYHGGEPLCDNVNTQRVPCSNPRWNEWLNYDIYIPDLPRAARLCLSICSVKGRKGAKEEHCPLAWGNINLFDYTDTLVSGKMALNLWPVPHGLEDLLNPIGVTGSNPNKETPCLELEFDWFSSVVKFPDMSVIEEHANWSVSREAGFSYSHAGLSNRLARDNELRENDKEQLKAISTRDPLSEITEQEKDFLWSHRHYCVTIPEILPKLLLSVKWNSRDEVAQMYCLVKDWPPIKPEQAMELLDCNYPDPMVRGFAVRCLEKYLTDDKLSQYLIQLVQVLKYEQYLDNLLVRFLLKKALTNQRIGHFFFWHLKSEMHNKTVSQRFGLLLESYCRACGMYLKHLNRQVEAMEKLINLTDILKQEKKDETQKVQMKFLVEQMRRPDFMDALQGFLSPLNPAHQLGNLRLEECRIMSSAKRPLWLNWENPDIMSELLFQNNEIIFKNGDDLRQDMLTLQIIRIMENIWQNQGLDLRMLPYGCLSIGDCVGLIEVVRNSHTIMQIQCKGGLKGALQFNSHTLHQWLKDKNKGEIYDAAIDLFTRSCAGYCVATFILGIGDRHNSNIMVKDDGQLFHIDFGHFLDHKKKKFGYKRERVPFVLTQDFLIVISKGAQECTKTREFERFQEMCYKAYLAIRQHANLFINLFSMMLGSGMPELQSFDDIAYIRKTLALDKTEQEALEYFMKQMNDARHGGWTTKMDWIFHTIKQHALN
# T1 sequence (P27986 whole entry partner): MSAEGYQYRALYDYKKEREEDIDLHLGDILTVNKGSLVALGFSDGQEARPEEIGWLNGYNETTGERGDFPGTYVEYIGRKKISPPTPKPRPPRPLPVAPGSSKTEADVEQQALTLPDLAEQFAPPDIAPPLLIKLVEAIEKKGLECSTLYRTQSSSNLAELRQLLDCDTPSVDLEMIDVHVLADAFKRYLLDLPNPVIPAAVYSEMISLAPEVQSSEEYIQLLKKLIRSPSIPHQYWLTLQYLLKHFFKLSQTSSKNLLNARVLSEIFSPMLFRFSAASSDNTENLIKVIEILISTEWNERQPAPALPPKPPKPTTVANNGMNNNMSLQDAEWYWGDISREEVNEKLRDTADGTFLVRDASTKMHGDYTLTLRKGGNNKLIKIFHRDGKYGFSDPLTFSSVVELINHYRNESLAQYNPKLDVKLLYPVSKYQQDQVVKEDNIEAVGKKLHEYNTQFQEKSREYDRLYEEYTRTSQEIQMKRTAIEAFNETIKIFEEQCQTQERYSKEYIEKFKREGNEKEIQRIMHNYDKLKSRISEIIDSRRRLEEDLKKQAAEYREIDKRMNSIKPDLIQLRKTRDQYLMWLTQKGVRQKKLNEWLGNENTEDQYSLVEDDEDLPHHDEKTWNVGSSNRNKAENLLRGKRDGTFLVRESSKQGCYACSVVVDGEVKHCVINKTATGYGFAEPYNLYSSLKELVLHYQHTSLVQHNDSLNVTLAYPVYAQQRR
Compound,IC50 (EGF stimulation) [nM],T47D pAKT S473 HTRF IC50 (H1047R): T47D (H1047R) selectivity over SKBR3 (WT) [1],IC50 [2] [nM],T47D pAKT S473 HTRF IC50 (H1047R): T47D (H1047R) selectivity over SKBR3 (WT) [3]
C=C(C)Nc1nn(C)c2ccc(-c3cc(=O)n4cc(C)cc([C@H](C)Nc5ccccc5C(=O)O)c4n3)cc12 [Compound 794],100 to 500,A (A denotes >20-fold),–,–
CC(=O)N1CCCC(c2cc(=O)n3cc(C)cc(C(C)Nc4ccccc4C(=O)O)c3n2)CC1 (stereo not drawn) [Compound 511],–,–,> 2000,C (C denotes ≤5-fold)
Cc1cc([C@@H](C)Nc2ccccc2C(=O)O)c2nc(C3C[C@@H](C)O[C@@H](C)C3)cc(=O)n2c1 (stereo partly drawn) [Compound 924],100 to 500,A (A denotes >20-fold),–,–
CC(=O)c1ccc(-c2cc(=O)n3cc(C)cc([C@H](C)Nc4ccccc4C(=O)O)c3n2)cc1 [Compound 661],> 2000,C (C denotes ≤5-fold),–,–
Cc1cc([C@H](C)Nc2ccccc2C(=O)O)c2nc(-c3ccc4c(C)cn(C)c4c3)c(C)c(=O)n2c1 [Compound 985],> 2000,C (C denotes ≤5-fold),–,–
"Cc1cc([C@@H](C)Nc2ccccc2C(=O)O)c2nc(-c3cccnc3)c(C)c(=O)n2c1 (single isomer, unassigned) [Compound 949]",< 100,A (A denotes >20-fold),–,–
Cc1cc([C@H](C)Nc2ccccc2C(=O)O)c2nc(C3C=NC(C4CC4)=CC3)cc(=O)n2c1 (stereo partly drawn) [Compound 1112],–,–,–,B (B denotes 20-fold≥value>5-fold)
"Cc1cc([C@@H](C)Nc2ccccc2C(=O)O)c2nc(-c3ccc(C4CC4)nc3)c(C)c(=O)n2c1 (single isomer, unassigned) [Compound 973]",< 100,A (A denotes >20-fold),–,–
Cc1cc([C@@H](C)Nc2ccccc2C(=O)O)c2nc(-c3ccc4c(c3)c(C(F)(F)F)nn4C)cc(=O)n2c1 [Compound 737],100 to 500,A (A denotes >20-fold),–,–
Cc1cc(C(C)Nc2ccccc2C(=O)O)c2nc(-c3cc(C)ncn3)c(C)c(=O)n2c1 (stereo not drawn) [Compound 1203],100 to 500,–,–,A (A denotes >20-fold)
Cc1cc([C@@H](C)Nc2ccccc2C(=O)O)c2nc(-c3ccc4c(C)nn(C)c4c3)c(C)c(=O)n2c1 [Compound 927],< 100,A (A denotes >20-fold),–,–
CNS(=O)(=O)c1ccccc1NC(C)c1cc(C)cn2c(=O)cc(N3Cc4ccccc4C3)nc12 (stereo not drawn) [Compound 835],100 to 500,A (A denotes >20-fold),–,–
Cc1cc([C@H](C)Nc2ccccc2C(=O)O)c2nc(-c3cc(C)c4[nH]c(=O)[nH]c4c3)cc(=O)n2c1 [Compound 498],–,–,> 2000,C (C denotes ≤5-fold)
Cc1cc([C@@H](C)Nc2ccccc2-c2ccnnc2)c2nc(N3CC(C)OC(C)C3)cc(=O)n2c1 (stereo partly drawn) [Compound 699],–,C (C denotes ≤5-fold),–,–
"Cc1cc(C(C)Nc2ccccc2-c2cc(O)no2)c2nc(-c3cccc(F)c3)c(C)c(=O)n2c1 (stereo not drawn) [Compound 1367, 2-(3-fluorophenyl)-9-(1-((2-(3-hydroxyisoxazol-5-yl)phenyl)amino)ethyl)-3,7-dimethyl-4H-pyrido[1,2-a]pyrimidin-4-one]",100 to 500,–,–,A (A denotes >20-fold)
Cc1cc([C@@H](C)Nc2ccccc2C(=O)O)c2nc(N3CCC(C)(C)CC3)cc(=O)n2c1 [Compound 361],–,–,< 100,A (A denotes >20-fold)
Cc1cc(C(C)Nc2ccccc2C(=O)O)c2nc(N3CCN(C(C)(C)C(N)=O)CC3)cc(=O)n2c1 (stereo not drawn) [Compound 554],–,–,> 2000,C (C denotes ≤5-fold)
Cc1cc(C(C)Nc2ccccc2C(=O)O)c2nc(N3CCSCC3)cc(=O)n2c1 (stereo not drawn) [Compound 240],–,–,< 100,A (A denotes >20-fold)
Cc1cc(C(C)Nc2ccccc2C(=O)O)c2nc(-c3cccc(F)c3)c(C3CC3)c(=O)n2c1 (stereo not drawn) [Compound 1231],< 100,–,–,A (A denotes >20-fold)
Cc1cc([C@H](C)Nc2ccccc2C(=O)O)c2nc(-c3ccc4c(c3)CC(=O)N4)cc(=O)n2c1 [Compound 478],–,–,100 to 500,A (A denotes >20-fold)
Cc1cc(C(C)Nc2c(C(=O)O)cnn2C)c2nc(N3CCOCC3)cc(=O)n2c1 (stereo not drawn) [Compound 379],–,–,> 2000,C (C denotes ≤5-fold)
Cc1cc(C(C)NC2=C(CC(=O)O)C=CCC2)c2nc(N3CCSCC3)cc(=O)n2c1 (stereo not drawn) [Compound 284],–,–,> 2000,C (C denotes ≤5-fold)

Compound,IC50 (EGF stimulation) [nM],T47D pAKT S473 HTRF IC50 (H1047R): T47D (H1047R) selectivity over SKBR3 (WT) [1],IC50 [2] [nM],T47D pAKT S473 HTRF IC50 (H1047R): T47D (H1047R) selectivity over SKBR3 (WT) [3]
Cc1cc([C@H](C)Nc2ccccc2C(=O)O)c2nc(N3CCC(C)CC3)cc(=O)n2c1 [Compound 360],–,–,> 2000,C (C denotes ≤5-fold)
Cc1cc([C@@H](C)Nc2ccccc2S(=O)(=O)O)c2nc(-c3ccc(C4CC4)cc3)c(C3CC3)c(=O)n2c1 [Compound 1274],100 to 500,–,–,A (A denotes >20-fold)
Cc1cc(C(C)Nc2ccccc2S(N)(=O)=O)c2nc(-c3ccc4c(c3)c(C)nn4C3CC3)c(C)c(=O)n2c1 (stereo not drawn) [Compound 944],100 to 500,A (A denotes >20-fold),–,–
Cc1cc([C@H](C)Nc2ccccc2C(=O)O)c2nc(N3CC(Cl)C3)cc(=O)n2c1 [Compound 365],–,–,> 2000,C (C denotes ≤5-fold)
Cc1cc([C@H](C)Oc2ccccc2C(=O)O)c2nc(-c3cccc(F)c3)c(C)c(=O)n2c1 [Compound 1373],> 2000,–,–,C (C denotes ≤5-fold)
Cc1cc([C@@H](C)N[C@@H](C(=O)O)c2ccccc2)c2nc(N3CCOCC3)cc(=O)n2c1 [Compound 649],> 2000,C (C denotes ≤5-fold),–,–
Cc1cc([C@@H](C)Nc2ccccc2C(=O)O)c2nc(-c3ccc4snc(N)c4c3)cc(=O)n2c1 [Compound 809],< 100,A (A denotes >20-fold),–,–
Cc1cc([C@H](C)Nc2ccccc2C(=O)O)c2nc(-c3ccnc(C4CC4)c3)cc(=O)n2c1 [Compound 1156],< 100,–,–,A (A denotes >20-fold)
Cc1cc([C@H](C)Nc2ccccc2S(N)(=O)=O)c2nc([C@@H]3CCCOC3)c(C)c(=O)n2c1 [Compound 1285],< 100,–,–,A (A denotes >20-fold)
CCc1c(-c2ccc3c(c2)c(C)cn3C)nc2c(C(C)Nc3ccccc3C(=O)O)cc(C)cn2c1=O (stereo not drawn) [Compound 1019],100 to 500,A (A denotes >20-fold),–,–
Cc1cc([C@@H](C)Nc2ccccc2C(=O)O)c2nc(-c3cccc(C(F)F)c3)cc(=O)n2c1 [Compound 1113],> 2000,–,–,C (C denotes ≤5-fold)
Cc1cc([C@H](C)Nc2ccccc2C(=O)O)c2nc(-c3c(C)ccc4c3cnn4C)cc(=O)n2c1 [Compound 815],> 2000,C (C denotes ≤5-fold),–,–
"Cc1cc([C@H](C)Nc2ccccc2C(=O)O)c2nc(-c3ccc4c(c3)c(N)nn4C)cc(=O)n2c1 (single isomer, unassigned) [Compound 536]",–,–,< 100,A (A denotes >20-fold)
Cc1cc([C@H](C)Nc2ccccc2C(N)=O)c2nc(-c3cccc(C#N)c3)c(C)c(=O)n2c1 [Compound 1138],> 2000,–,–,C (C denotes ≤5-fold)
Cc1cc([C@H](C)Nc2ccccc2C(=O)O)c2nc(N3C[C@@H](C)O[C@@H](C)C3)cc(=O)n2c1 [Compound 320],–,–,> 2000,C (C denotes ≤5-fold)
Cc1cc([C@H](C)Nc2ccccc2C(=O)O)c2nc(-c3ccc(-c4ccc5oc(=O)n(C)c5c4)c(C)c3)c(C)c(=O)n2c1 [Compound 1276],< 100,–,–,C (C denotes ≤5-fold)
Cc1cc([C@@H](C)Nc2ccccc2S(N)(=O)=O)c2nc(-c3cccc(C(F)F)c3)c(C)c(=O)n2c1 [Compound 1097],< 100,–,–,A (A denotes >20-fold)
Cc1cc([C@@H](C)Nc2ccccc2S(N)(=O)=O)c2nc(-c3cnc4c(c3)c(C)nn4C3CC3)c(C)c(=O)n2c1 [Compound 991],100 to 500,A (A denotes >20-fold),–,–
Cc1cc(C(C)CNc2ccccc2C(=O)O)c2nc(N3CCOCC3)cc(=O)n2c1 (stereo not drawn) [Compound 929],> 2000,C (C denotes ≤5-fold),–,–
Cc1cc([C@H](C)Nc2ccccc2S(N)(=O)=O)c2nc(-c3ccc(C4CCOCC4)nc3)c(C)c(=O)n2c1 [Compound 1295],< 100,–,–,A (A denotes >20-fold)
Cc1cc([C@@H](C)Nc2ccccc2C(=O)O)c2nc(N3CC4CC(F)(F)CC4C3)c(C)c(=O)n2c1 (stereo partly drawn) [Compound 849],100 to 500,A (A denotes >20-fold),–,–
